Measurements reported in patent US9635857B2, “Tetrazolinone compound and use thereof” (SUMITOMO CHEMICAL COMPANY, LIMITED, priority 2013, dated 2017).

System: soybean rust fungus (Phakopsora pachyrhizi)
Assay: Test Example 7: soybean rust control, foliar spray on soybean
Format: in vivo
Conditions: 200 ppm sprayed on soybean (KUROSENGOKU); inoculated after 2 days; assessed after 3 + 14 days

For `CON=C(C)c1cccc(OCc2c(C)cccc2-n2nnn(C)c2=O)n1` [compound 44], the “area of lesion on the treated plant relative to that on an untreated plant” value was no more than 30%.
